Reference: patent publication US20030041357A1, “Herbicide resistant plants” (priority 1996, published 2003)

Tests used:
[1] = target: GST-27 (leaf extracts of GST-27 expressing tobacco) (Zea mays, UniProt P46420); experiment: In vitro HPLC assay of GST activity against herbicide substrates; assay type: biochemical; details: GST-27 tobacco extracts, 5 mM glutathione, 20 ppm herbicide
[2] = system: wild-type tobacco; experiment: Rooting assay on MS medium with herbicide; assay type: in vivo, Nicotiana tabacum cv Samsum; details: for root growth of explants: 3 weeks, 10, 20, 40 ppm acetochlor/metolachlor, 20, 40, 100 ppm alachlor
[3] = system: GST-27 tobacco lines; experiment: Rooting assay on MS medium with herbicide; assay type: in vivo, Nicotiana tabacum cv Samsum
[4] = system: transgenic maize seedlings expressing GST-27; experiment: Acetochlor-treated soil seedling test; assay type: in vivo; details: soil treated with 2,000 to 8,000 grams per hectare, 7 days
[5] = system: non-transgenic maize seedlings; experiment: Acetochlor-treated soil seedling test; assay type: in vivo; details: soil treated with 2,000 to 8,000 grams per hectare, absence of safener, 7 days
[6] = system: Wild Type tobacco; experiment: Herbicide trial of DV6/HPPD cross (Example 10); assay type: in vivo; details: 75 g/ha
[7] = system: DV6/HPPD tobacco; experiment: Herbicide trial of DV6/HPPD cross (Example 10); assay type: in vivo; details: 75 g/ha
[8] = system: transgenic tobacco plants expressing GST-27; experiment: Pre-emergence glasshouse herbicide trial; assay type: in vivo, Nicotiana tabacum cv Samsum; details: 300 and 350 g/ha in 5% JF 5969
[9] = system: transgenic tobacco plants expressing GST-27; experiment: Post-emergence glasshouse herbicide trial; assay type: in vivo, Nicotiana tabacum cv Samsum; details: sprayed 16 days after sowing, 5% JF 5969
[10] = system: wild type controls; experiment: Growth on herbicide-containing tissue culture medium; assay type: in vivo, Tobacco; details: 0.01 and 0.05 mM glyphosate; 10 and 40 ppm alachlor
[11] = system: primary transformants from pDV6-Bin; experiment: as above; assay type: in vivo, Tobacco; details: a number of transgenics; 0.01 and 0.05 mM glyphosate; 10 and 40 ppm alachlor
[12] = system: wild type tomato (cv Ailsa Craig); experiment: PDS inhibitor herbicide tolerance trial; assay type: in vivo
[13] = system: transgenic tomato over-expressing the Erwinia uredovora crt1 (PDS) gene; experiment: PDS inhibitor herbicide tolerance trial; assay type: in vivo; details: for Phytotoxity at 27 PAT: Transgenic tomato
[14] = system: pDV6 plants expressing both glyphosate resistance genes and GST; experiment: Pre-em/post-em herbicide treatment of DV6 plants (Table 1); set-up: species or system Tobacco; details: in vivo
[15] = system: maize seedlings which contain the PAT gene; experiment: Glufosinate spray of maize seedlings; assay type: in vivo; details: commercial mix, about 0.1 to 1% active ingredient
[16] = line 2, pilot experiment, 2 weeks
[17] = line 6, pilot experiment, 2 weeks

GST-27 (leaf extracts of GST-27 expressing tobacco), sequence (P46420 whole entry): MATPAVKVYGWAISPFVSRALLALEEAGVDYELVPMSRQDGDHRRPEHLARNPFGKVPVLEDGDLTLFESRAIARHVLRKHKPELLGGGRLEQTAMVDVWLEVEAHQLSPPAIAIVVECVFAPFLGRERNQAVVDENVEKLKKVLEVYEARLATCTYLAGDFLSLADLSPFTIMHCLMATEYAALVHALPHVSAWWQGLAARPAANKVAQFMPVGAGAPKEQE

CCOCN(C(=O)CCl)c1c(C)cccc1CC [Acetochlor, acetochlor]
GST activity against herbicide substrate (HPLC) [1]: lowest activity
root growth of explants [2]: do not show any rooting
root growth of explants ([3]; GST-27 lines 6 and 17, 3 weeks): produce few roots at 10 and 20 ppm
root growth of explants ([3]; lines 5 and 12, 3 weeks): not as resistant
seedling damage [4]: little, if any damage
seedling damage [5]: very substantial damage
phytotoxicity score, 21 DAT ([6]; Wild Type Rep a): 40
phytotoxicity score, 21 DAT ([6]; Wild type Rep b): 100
phytotoxicity score, 21 DAT ([7]; DV6/HPPD Rep a): 0
phytotoxicity score, 21 DAT ([7]; DV6/HPPD Rep b): 0

CCc1cccc(CC)c1N(COC)C(=O)CCl [Alachlor, alachlor]
root growth of explants [2]: does not produce any root
concentration from which an effect of the herbicide is observable ([2]; pilot experiment, 2 weeks): ≥ 1 ppm
concentration from which plants do not produce new leaves ([2]; pilot experiment, 2 weeks): ≥ 10 ppm
concentration up to which roots are produced ([2]; pilot experiment, 2 weeks): up to 5 ppm
concentration up to which roots are produced ([3]; GST-27 lines 6 and 17, 3 weeks): ≤ 40 ppm
root growth of explants ([3]; Lines 9 and 16, 20 and 40 ppm, 3 weeks): do not produce any roots
concentration from which an effect of the herbicide is observable [3, 16]: ≥ 20 ppm
concentration up to which roots are produced [3, 16]: up to 10 ppm
concentration from which an effect of the herbicide is observable [3, 17]: ≥ 40 ppm
concentration up to which roots are produced [3, 17]: ≤ 20 ppm
resistance to pre-emergent application (germination scored after 3 weeks) [8]: resistant
resistance to post-emergent spray (damage scored after 3 weeks) [9]: resistant
growth on tissue culture medium [10]: fail to
growth on tissue culture medium [11]: grow successfully

CCC1CN(c2cccc(C(F)(F)F)c2)C(=O)C1C(=O)NC (stereo not shown) [Compound III]
Phytotoxity at 27 PAT ([12]; 37 g/ha): 0%
Phytotoxity at 27 PAT ([12]; 111 g/ha): 8.3%
Phytotoxity at 27 PAT ([12]; 333 g/ha): 56.7%
Phytotoxity at 27 PAT ([12]; 1000 g/ha): 100%
Phytotoxity at 27 PAT ([13]; 111 g/ha): 0%
Phytotoxity at 27 PAT ([13]; 333 g/ha): 0%
Phytotoxity at 27 PAT ([13]; 1000 g/ha): 10%
Phytotoxity at 27 PAT ([13]; 3000 g/ha): 3.3%

COc1nn(-c2cccc(C(F)(F)F)c2)/c(=N\C(=O)OC(C)C)s1 [Compound II]
Phytotoxity at 27 PAT ([12]; 37 g/ha): 3.3%
Phytotoxity at 27 PAT ([12]; 111 g/ha): 13.3%
Phytotoxity at 27 PAT ([12]; 333 g/ha): 20%
Phytotoxity at 27 PAT ([12]; 1000 g/ha): 100%
Phytotoxity at 27 PAT ([13]; 111 g/ha): 3.3%
Phytotoxity at 27 PAT ([13]; 333 g/ha): 0%
Phytotoxity at 27 PAT ([13]; 1000 g/ha): 3.3%
Phytotoxity at 27 PAT ([13]; 3000 g/ha): 0%

O=C1C(Cl)C(CCl)CN1c1cccc(C(F)(F)F)c1 (stereo not shown) [Compound I]
Phytotoxity at 27 PAT ([12]; 333 g/ha): 0%
Phytotoxity at 27 PAT ([12]; 1000 g/ha): 23.3%
Phytotoxity at 27 PAT ([12]; 3000 g/ha): 100%
Phytotoxity at 27 PAT ([12]; 9000 g/ha): 100%
Phytotoxity at 27 PAT ([13]; 333 g/ha): 0%
Phytotoxity at 27 PAT ([13]; 1000 g/ha): 0%
Phytotoxity at 27 PAT ([13]; 3000 g/ha): 0%
Phytotoxity at 27 PAT ([13]; 9000 g/ha): 0%
rate to which transgenic tomatoes are highly tolerant ([13]; transgenic tomatoes): up to 9 kg/ha

CCCN(CCC)C(=O)SCC [EPTC]
% Phytotoxicity (mean, 21 DAT) [14]: 0%

CCc1cccc(C)c1N(C(=O)CCl)C(C)COC (stereo not shown) [Metolachlor, metolachlor]
GST activity against herbicide substrate (HPLC) [1]: lowest activity
root growth of explants [2]: produces very few tiny roots at 10 and 20 ppm
rooting concentration limit ([3]; GST-27 line 17, 3 weeks): more than 40 ppm
root growth of explants ([3]; GST-27 lines 6 and 17, 3 weeks): produce short roots

CP(=O)(O)CCC(N)C(=O)O (stereo not shown) [glufosinate]
resistance of seedlings to spray [15]: either completely resistant to glufosinate, or are relatively tolerant of the herbicide
